≈ marks a conversion by molar mass, not a printed value. A value given as a limit tells only on which side of the number the result lay.

In general, IC50 refers to the concentration needed to halve the response being measured.

One assay deals with T1, α-glucosidase.
T1 construct: gene MAL12; docking used PDB 3A4A (isomaltase IMA1), not the tested protein
Kind of assay: intrinsic fluorescence quenching, excitation […] nm. The settings on record: 298 K; double-log; n = 0.9843. It counts as binding, Saccharomyces cerevisiae.
Turning to `O=c1c(O)c(-c2cc(O)c(O)c(O)c2)oc2cc(O)cc(O)c12` [compound 1, myricetin], the “Ka” value worked out at 77786 L/mol.

Still in this assay, the particulars now being: 298 K; double-log; n = 1.0572.
In the case of `O=C1c2c(O)cc(O)cc2O[C@H](c2cc(O)c(O)c(O)c2)[C@H]1O` [compound 8, dihydromyricetin], the “Ka” value was 57637 L/mol.

In the next assay the target is T1, α-glucosidase. Description: pNP-G hydrolysis, absorbance […] nm. It counts as biochemical, Saccharomyces cerevisiae. To be noted: pNP-G (1 mM stock, 1 mL added), 0.1 M phosphate pH 6.8, 37 °C, 10 min preincubation.
As to `O=C(/C=C/c1ccc(O)cc1)c1ccc(O)cc1O` [compound 6, isoliquiritigenin], the IC50 was found to be 36.29 µg/mL (≈ 142 µM).
On the same count and under the same terms, under `O=c1cc(-c2ccccc2)oc2cc(O)cc(O)c12` [compound 7, chrysin] stands 70.07 µg/mL (≈ 276 µM).
The molecule `COc1ccc([C@@H]2CC(=O)c3c(O)cc(O)cc3O2)cc1O` [compound 11, hesperetin] returned an IC50 of 286.60 µg/mL (≈ 948 µM).
On the same count and under the same terms, under `C[C@@H]1O[C@@H](O[C@H]2[C@H](Oc3cc(O)c4c(c3)O[C@H](c3ccc(O)cc3)CC4=O)O[C@H](CO)[C@@H](O)[C@@H]2O)[C@H](O)[C@H](O)[C@H]1O` [compound 12, naringin] stands over 500 µg/mL.
The same measure, in the same setting: under `O=C(/C=C/c1ccc(O)cc1)c1ccccc1` [compound 9, 4-hydroxychalcone] stands 123.04 µg/mL (≈ 549 µM); under `O=c1cc(-c2ccc(O)c(O)c2)oc2cc(O)cc(O)c12` [compound 5, luteolin], 27.22 µg/mL (≈ 95.1 µM); under `O=c1c(O)c(-c2ccc(O)c(O)c2)oc2cc(O)ccc12` [compound 2, fisetin], 5.50 µg/mL (≈ 19.2 µM).
As to `O=c1cc(-c2ccccc2)oc2cc(O)c(O)c(O)c12` [compound 4, baicalein], the IC50 amounted to 6.75 µg/mL (≈ 25 µM).
Still for that read-out and setting: then `COc1ccc([C@@H]2CC(=O)c3c(O)cc(O[C@@H]4O[C@H](CO[C@@H]5O[C@@H](C)[C@H](O)[C@@H](O)[C@H]5O)[C@@H](O)[C@H](O)[C@H]4O)cc3O2)cc1O` [compound 13, hesperidin], with over 500 µg/mL; and `O=C(/C=C/c1ccccc1)c1ccc(O)cc1` [compound 10, 4′-hydroxychalcone], with 199.10 µg/mL (≈ 888 µM).
In the case of `O=C1c2c(O)cc(O)cc2O[C@H](c2cc(O)c(O)c(O)c2)[C@H]1O` [compound 8, dihydromyricetin], the IC50 turned out to be 85.95 µg/mL (≈ 268 µM).
Still for that read-out and setting: then `O=C(O)[C@H]1O[C@@H](Oc2cc3oc(-c4ccccc4)cc(=O)c3c(O)c2O)[C@H](O)[C@@H](O)[C@@H]1O` [compound 14, baicalin], with over 500 µg/mL; and `O=c1c(O)c(-c2cc(O)c(O)c(O)c2)oc2cc(O)cc(O)c12` [compound 1, myricetin], with 2.09 µg/mL (≈ 6.57 µM).

The values above are taken from article PMC6770089, “Interaction Mechanism of Flavonoids and α-Glucosidase: Experimental and Molecular Modelling Studies” (Foods, 2019).
